# Publication PMC4805082, “Seizure control by decanoic acid through direct AMPA receptor inhibition” (Brain, 2015)
# Tests used:
# [1] = tested on: epileptiform activity (burst discharges) in hippocampal slices induced by low-Mg2+; parameters: method as in Chang et al., 2012, 2013; details: 1 mM; ref Chang et al., 2012, 2013; cited from earlier work
# [2] = biological target: T1, AMPA receptor GluA2/3 (Homo sapiens, UniProt P42262+P42263); test: Two-electrode voltage clamp, AMPA receptor GluA2/3 expressed in Xenopus oocytes; type: cell-based; details: for AMPA receptor currents: compound 1 mM, currents elicited by 100 µM L-glutamate, −50 mV
# T1 construct: expressed in transfected cells; host or cells: Xenopus laevis oocytes injected with cRNA (1:1 mix)
# Description: The AMPA receptor (flip isoform) cDNAs inserted in a SP6 polymerase expression vector (pSP6T) were a generous gift from Prof. Ralf Schoepfer (NPP, UCL). […] AMPA receptor cRNAs were mixed in a nominal 1:1 ratio and ∼5 ng was injected per oocyte.
# (§1) Xenopus laevis oocytes were purchased from the European Xenopus Resource Centre, University of Portsmouth. Stage V to VI oocytes were mechanically dissected and then subjected to gentle shaking for ∼30–50 min at room temperature with modified Barth’s solution (in mM): 88 NaCl, 1 KCl, 2.4 NaHCO3, 0.82 MgCl2, 0.77 CaCl2, 15 Tris-Cl, adjusted to pH 7.4 with NaOH (Sigma-Aldrich), supplemented with 50 IU/ml penicillin and 50 µg/ml streptomycin (Invitrogen) and 50 µg/ml tetracycline (Sigma-Aldrich) and 1% collagenase (type 1A). Healthy oocytes were manually defolliculated and the injections of cRNA for homomeric subunits alone (GluA1), or heteromeric mixtures of two subunits together (GluA1/GluA2 or GluA2/GluA3) were made using an automated Drummond Nanoinject II injector. The oocytes were then incubated at 17°C in modified Barth’s solution for at least 48 h before use in electrophysiological recordings.
# Experiments were performed at room temperature (∼21–23°C). […] Current and voltage electrodes were filled with 300 mM KCl and made from thin-walled borosilicate glass (GC150TF-7.5, Harvard Apparatus) using a PC-10 electrode puller (Narashige Instruments) and had resistances of 0.5–2 MΩ. […] Compounds were dissolved in distilled water or DMSO and dissolved in bathing solution to achieve their final concentrations during experiments, and were applied under gravity flow during the experiment by using a multi-valve perfusion system (VC3-8C, ALA Scientific Instruments). The bath solutions were perfused at a rate of 10 ml/min. […] Data acquisition was performed using the Windows PC-based program, WinEDR v3.0.6 (John Dempster, University of Strathclyde, UK).
# Statistical analysis was performed using ANOVA with Tukey post hoc test, paired t-test or unpaired t-test.
# [3] = biological target: T2, AMPA receptor GluA1 (Homo sapiens, UniProt P42261); test: Two-electrode voltage clamp, homomeric GluA1 AMPA receptor expressed in Xenopus oocytes; type: cell-based; details: glutamate 100 µM
# T2 construct: expressed in transfected cells; host or cells: Xenopus laevis oocytes injected with cRNA
# Description: The AMPA receptor (flip isoform) cDNAs inserted in a SP6 polymerase expression vector (pSP6T) were a generous gift from Prof. Ralf Schoepfer (NPP, UCL). RNA was transcribed in vitro from MluI linearized transcripts using the SP6 Promega RiboMAX® RNA synthesis kit according to manufacturer’s protocols except for the addition of 0.75 mM capping nucleotide m^7G(5’)ppp(5’)G (Promega) and 1.6 mM GTP. cRNA concentrations and integrity were estimated by the intensity of fluorescence bands in RNA denaturating gels. AMPA receptor cRNAs were mixed in a nominal 1:1 ratio and ∼5 ng was injected per oocyte.
# as §1
# Experiments were performed at room temperature (∼21–23°C). An oocyte was placed in a recording chamber (0.3–0.5 ml volume) and perfused with ND96 solution (96 mM NaCl, 2 mM KCl, 1.8 mM CaCI2, 1 mM MgCl2, 5 mM HEPES, with pH adjusted to 7.5). Current and voltage electrodes were filled with 300 mM KCl and made from thin-walled borosilicate glass (GC150TF-7.5, Harvard Apparatus) using a PC-10 electrode puller (Narashige Instruments) and had resistances of 0.5–2 MΩ. Oocytes were voltage-clamped to a holding potential of −50 mV or −60 mV using a Turbo TEC-03 amplifier (npi electronics). […]
# [4] = tested on: epileptiform activity (burst discharges) in hippocampal slices induced by pentylenetetrazol; parameters: method as in Chang et al., 2012, 2013; details: 1 mM; ref Chang et al., 2012, 2013; cited from earlier work
# [5] = tested on: field EPSP; parameters: method as in Ceolin et al., 2012; details: at 30–50 nM; ref Ceolin et al., 2012; cited from earlier work
# [6] = humans; ref Rogawski and Hanada, 2013; cited from earlier work
# [7] = tested on: AMPA receptor; parameters: method as in Arai, 2001; details: 50 µM; ref Arai, 2001; cited from earlier work
# [8] = tested on: epileptiform activity (burst discharges) in hippocampal slices induced by pentylenetetrazol; test: In vitro seizure model, pentylenetetrazol-induced epileptiform activity in hippocampal slices; type: cell-based, rat; details: pentylenetetrazol 2 mM, K+ 6 mM
# Description: (§2) Male Sprague-Dawley rats (postnatal Days 19–30) were sacrificed using an overdose of isoflurane or pentobarbitone (500 mg/kg). After decapitation the brain was rapidly removed, the hippocampus or entorhinal cortex-hippocampus slices was dissected from the brain and […] thick transverse slices were prepared on a VT1200S vibratome (Leica) or Vibratome (Vibratome® 1500 sectioning system, Intracell). The slicing was performed in ice-cold sucrose-based solution containing (in mM): 75 sucrose, 87 NaCl, 22 glucose, 2.5 KCl, 7 MgCl2, 1.25 NaH2PO4, 0.5 CaCl2 and 25 NaHCO3, pH 7.4, 315–330 mOsm equilibrated with 95% O2 plus 5% CO2. The slices were then stored in a continuously oxygenated humidified interface holding chamber containing oxygenated artificial CSF (in mM): 120 NaCl, 22 glucose, 2.5 KCl, 1.3 MgSO4, 1 NaH2PO4, 25 NaHCO3 and 2.5 CaCl2, pH 7.4 296 mOsm, where they recovered for at least 1 h before use.
# (§3) During the experiment, slices were transferred from the interface chamber into a submerged recording chamber, designed to optimize wash-in and wash-out of drugs, and continuously perfused using gravity feed at 3–6 ml/min with prewarmed (36°C) oxygenated artificial CSF (95% O2, 5% CO2). Field potentials were recorded with a glass microelectrode (1–2 MΩ) filled with artificial CSF solution placed in stratum radiatum of CA1 and were filtered at 1 kHz and digitized at 2 kHz (using an npi EXT-02F extracellular amplifier recorded with WinEDR software). In the pentylenetetrazol model, the epileptiform (paroxysmal) activity was induced by application of pentylenetetrazol (2 mM) to the perfusate and [K^+] was increased (to 6 mM); in low-Mg^2+ model, the epileptiform activity was elicited by using Mg^2+-free artificial CSF. Once the frequency of the paroxysmal activity was stable for at least 10 min, compounds were applied to the perfusate for the following 40 min, and washed out for a remaining 20 min. The anticonvulsant effects were evaluated by measuring the change in the frequency of the discharges at minute intervals. The discharge frequency was then averaged every 5 min during the experiment and normalized to baseline. The compounds applied in this study included: 1% dimethyl sulphoxide (DMSO), acetone (10 mM, Sigma), (±)-sodium 3-hydroxybutyrate (BHB) (10 mM, Sigma), and decanoic acid (1 mM, Alfa Aesar Pty). Acetone and decanoic acids were prepared as 1000× stocks in DMSO, and BHB was prepared as 100× stock. Stocks were dissolved in artificial CSF to achieve their final concentrations during experiments, and where applicable, experiments included constant levels of DMSO.
# [9] = tested on: epileptiform activity (burst discharges) in hippocampal slices induced by low-Mg2+; test: In vitro seizure model, low-Mg2+ induced epileptiform activity in hippocampal slices; type: cell-based, rat; details: 10 mM; low magnesium
# Description: as §2
# as §3, with “The discharge frequency was then averaged every 5 min during the experiment and normalized to baseline. The compounds applied in this study included: 1% dimethyl sulphoxide (DMSO), acetone (10 mM, Sigma), (±)-sodium 3-hydroxybutyrate (BHB) (10 mM, Sigma), and decanoic acid (1 mM, Alfa Aesar Pty). Acetone and decanoic acids were prepared as 1000× stocks in DMSO, and BHB was prepared as 100× stock. Stocks were dissolved in artificial CSF to achieve their final concentrations during experiments, and where applicable, experiments included constant levels of DMSO.” left out
# T1 sequence (P42262 22-883 isoform P42262-2 limits assumed): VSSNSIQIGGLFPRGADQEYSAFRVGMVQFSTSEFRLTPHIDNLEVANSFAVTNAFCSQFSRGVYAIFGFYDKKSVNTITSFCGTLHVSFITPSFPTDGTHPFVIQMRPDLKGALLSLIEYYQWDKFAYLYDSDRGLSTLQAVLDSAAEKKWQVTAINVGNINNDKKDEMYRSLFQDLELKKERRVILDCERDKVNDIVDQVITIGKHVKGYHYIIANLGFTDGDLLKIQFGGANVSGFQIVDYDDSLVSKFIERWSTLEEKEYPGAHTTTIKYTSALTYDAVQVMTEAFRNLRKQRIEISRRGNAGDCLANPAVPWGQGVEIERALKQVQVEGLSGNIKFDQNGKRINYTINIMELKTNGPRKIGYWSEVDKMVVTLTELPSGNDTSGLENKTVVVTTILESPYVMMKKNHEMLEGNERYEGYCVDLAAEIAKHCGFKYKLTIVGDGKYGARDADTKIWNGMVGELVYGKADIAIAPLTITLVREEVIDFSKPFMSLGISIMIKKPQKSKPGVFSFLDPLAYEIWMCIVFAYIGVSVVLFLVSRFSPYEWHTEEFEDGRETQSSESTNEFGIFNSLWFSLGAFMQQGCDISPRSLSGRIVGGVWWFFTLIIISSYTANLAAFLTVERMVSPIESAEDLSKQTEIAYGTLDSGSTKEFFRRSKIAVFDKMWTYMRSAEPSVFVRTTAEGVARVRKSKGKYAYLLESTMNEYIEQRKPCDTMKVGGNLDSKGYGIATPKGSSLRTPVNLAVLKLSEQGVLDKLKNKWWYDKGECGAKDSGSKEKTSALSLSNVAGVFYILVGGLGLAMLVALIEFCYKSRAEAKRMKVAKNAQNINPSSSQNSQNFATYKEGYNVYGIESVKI
# T1 sequence (P42263 29-894 isoform P42263-2 limits assumed): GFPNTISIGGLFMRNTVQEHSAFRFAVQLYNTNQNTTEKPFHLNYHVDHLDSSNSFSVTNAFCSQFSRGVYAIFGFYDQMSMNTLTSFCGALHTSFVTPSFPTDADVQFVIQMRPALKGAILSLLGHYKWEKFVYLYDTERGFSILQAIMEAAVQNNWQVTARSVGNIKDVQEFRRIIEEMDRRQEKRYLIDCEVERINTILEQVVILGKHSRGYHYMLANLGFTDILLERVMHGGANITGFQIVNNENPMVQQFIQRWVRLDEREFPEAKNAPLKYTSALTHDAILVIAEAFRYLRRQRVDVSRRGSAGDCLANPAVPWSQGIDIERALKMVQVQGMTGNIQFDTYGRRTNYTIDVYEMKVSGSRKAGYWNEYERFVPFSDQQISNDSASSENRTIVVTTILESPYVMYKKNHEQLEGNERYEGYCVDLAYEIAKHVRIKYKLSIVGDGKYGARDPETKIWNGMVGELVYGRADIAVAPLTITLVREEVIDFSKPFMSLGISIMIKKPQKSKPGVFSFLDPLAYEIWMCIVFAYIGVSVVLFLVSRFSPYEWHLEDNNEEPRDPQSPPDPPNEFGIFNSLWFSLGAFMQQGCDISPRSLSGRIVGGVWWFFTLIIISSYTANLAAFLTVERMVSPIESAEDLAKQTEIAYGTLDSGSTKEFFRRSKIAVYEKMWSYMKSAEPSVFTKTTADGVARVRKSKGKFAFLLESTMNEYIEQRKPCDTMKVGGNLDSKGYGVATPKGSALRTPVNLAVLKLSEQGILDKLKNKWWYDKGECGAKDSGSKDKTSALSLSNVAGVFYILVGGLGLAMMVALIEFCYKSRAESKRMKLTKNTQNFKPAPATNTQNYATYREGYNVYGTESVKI
# T2 sequence (P42261 19-906 isoform P42261-2 limits assumed): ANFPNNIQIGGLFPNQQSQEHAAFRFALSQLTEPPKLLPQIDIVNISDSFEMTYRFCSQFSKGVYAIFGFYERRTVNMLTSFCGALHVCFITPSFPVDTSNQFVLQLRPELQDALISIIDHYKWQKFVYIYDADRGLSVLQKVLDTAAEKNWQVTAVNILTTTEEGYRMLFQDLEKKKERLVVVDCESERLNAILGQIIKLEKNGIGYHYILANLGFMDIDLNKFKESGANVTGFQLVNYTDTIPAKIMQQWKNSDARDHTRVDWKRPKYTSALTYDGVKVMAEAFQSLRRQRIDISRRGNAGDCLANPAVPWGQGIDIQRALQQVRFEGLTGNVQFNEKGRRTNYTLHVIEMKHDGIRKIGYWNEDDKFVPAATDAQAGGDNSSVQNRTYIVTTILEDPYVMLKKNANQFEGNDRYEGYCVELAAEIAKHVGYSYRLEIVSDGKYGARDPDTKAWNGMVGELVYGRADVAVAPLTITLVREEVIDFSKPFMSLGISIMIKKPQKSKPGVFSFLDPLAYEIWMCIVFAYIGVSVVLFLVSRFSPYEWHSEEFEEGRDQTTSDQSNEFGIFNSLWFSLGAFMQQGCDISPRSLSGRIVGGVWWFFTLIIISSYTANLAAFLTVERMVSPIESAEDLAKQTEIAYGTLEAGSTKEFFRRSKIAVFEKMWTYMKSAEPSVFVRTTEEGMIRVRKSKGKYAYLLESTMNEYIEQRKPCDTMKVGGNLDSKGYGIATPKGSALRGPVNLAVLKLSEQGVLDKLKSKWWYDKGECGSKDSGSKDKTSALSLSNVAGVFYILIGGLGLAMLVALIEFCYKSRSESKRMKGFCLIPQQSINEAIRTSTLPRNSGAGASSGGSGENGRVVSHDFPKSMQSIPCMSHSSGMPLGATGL
smiles,measurement,setting,value
CCCC(CCC)C(=O)O [valproic acid],effect on seizure activity,[1],only modifies seizure activity
same,AMPA receptor currents,[2],no action
same,effect on homomeric GluA1 currents,[3],no effect
same,effect on seizure activity,[4],only modifies seizure activity
N#Cc1ccccc1-c1cc(-c2ccccn2)cn(-c2ccccc2)c1=O [perampanel],reduction in field EPSP slope,[5],~20%
same,free concentrations observed to be efficacious,[6],30 to 50 nM
CCCCC(C)CCC(=O)O (stereo not drawn) [4-methyloctanoic acid],IC50,"[2]; glutamate 100 µM, read-out: IC50, inhibition of glutamate-induced AMPA receptor current",840 ± 40 µM
"CCCCCCCC(=O)O [octanoic acid, reference compound]",AMPA receptor currents,[2],no effect
same,effect on homomeric GluA1 currents,[3],no effect
"CC1=NN=C(c2ccc(N)cc2)c2cc3c(cc2C1)OCO3 [GYKI 52466, reference compound]",decrease in AMPA receptor responses,[7],60–70%
same,effect on epileptiform activity,[8]; 50 µM,completely blocked
"CC(O)CC(=O)O (racemic) [β-hydroxybutyrate, (±)-sodium 3-hydroxybutyrate]",effect on epileptiform activity,[9],did not have any effect
same,effect on epileptiform activity,[8]; 10 mM,did not have any effect
CC(C)=O [acetone],effect on epileptiform activity,[9],did not have any effect
same,effect on epileptiform activity,[8]; 10 mM,did not have any effect
